# In patent US20220275389A1, “MODIFIED EXOPOLYSACCHARIDE RECEPTORS FOR RECOGNIZING AND STRUCTURING MICROBIOTA” (Aarhus Universitet, priority 2019, published 2022):
# “Also recorded” adds a separate entry of the source. Read-outs that look alike come from different tables or passages of the source.
# Assays:
# [1] = biological target: Lotus japonicus EPR3 ectodomain (EPR3 ED, residues 33-232), wild type, EPR3 SEQ ID NO: 61 (Lotus japonicus, UniProt D3KU53); test: Microscale thermophoresis (MST) binding of EPS ligands to EPR3 ectodomain (ED); conditions: 100 nM EPR3 ED, pH 7.8, 25° C.; for Kd: 95% confidence interval, read-out: equilibrium dissociation constant (Kd)
# Protocol: Expression and purification of L. japonicus ecotype Gifu EPR3 ectodomain (ED) was performed as described previously (Kawaharada, Y et al. Nature 2015 523: 308-312). In brief, DNA encoding residues 33-232 of EPR3 (corresponding to the EPR3 ED) containing an N-terminal gp67 secretion signal and a C-terminal 6×His-tag was codon-optimized for insect cell expression (GenScript) and inserted into the pOET2 vector (Oxford Expression Technologies). Baculoviruses, used for infecting Sf9 cells cultured in suspension in serum-free HyClone SFX-Insect medium (FisherScientific), were obtained using the flashBAC GOLD system (OET). Five days post inoculation, the media was dialyzed against buffer containing 50 mM Tris-HCl pH 8.0 and 200 mM NaCl before centrifugation and loaded on a HisTrap excel affinity column (GE Healthcare). The eluted protein was dialyzed against buffer containing 50 mM Tris-HCl pH 8.0 and 200 mM NaCl, and further purified on a HisTrap HP affinity column (GE Healthcare). For crystallization, the EPR3 ED was treated with PNGase F (1:15 w/w ratio) for 1 hour at room temperature and overnight at 4° C. to remove N-linked oligosaccharides. EPR3 ED was then purified on a Mono S 5/50 column (GE Healthcare) and eluted with a linear gradient of 50-300 mM NaCl and 50 mM Tris-HCl, pH 7.0. Both glycosylated and de-glycosylated EPR3 ED were finally purified on a Superdex 75 10/300 column (GE Healthcare) in gel filtration buffer containing 50 mM KH2-PO4 pH 7.8 and 200 mM NaCl (for microscale thermophoresis binding experiments) or 50 mM Tris-HCl pH 8.0 and 200 mM NaCl (for crystallization).
# Low molecular mass (LMM) exopolysaccharides (EPS) were isolated from various rhizobial strains including Mesorhizobium loti strain R7A ndvB6, R. leguminosarum bv. viciae 3855 (this work) and Sinorhizobium meliloti B578 (Griffins, J. S. et al. Mol. Microbiol. 2008 69: 479-490) that were deficient in cyclic glucan production were grown on minimal media with glucose as the sole source of carbon. The LMM EPS was isolated from the bacterial culture supernatants and purified via sequential precipitation with 6 volumes of 99.8% EtOH (v/v), followed by 9 volumes EtOH (v/v) and purified by size exclusion chromatography (SEC) as previously described (Muszyński, A. et al. J. Biol. Chem. 2016 291: 20946-20961). O-acetyl groups were removed chemically by mild overnight treatment of native EPS samples with 12.5% NH4OH (Muszyński, A. et al. J. Biol. Chem. 2016 291: 20946-20961). […] The glycosyl composition and linkage was determined as previously described (Muszyński, A. et al. J. Biol. Chem. 2016 291: 20946-20961). […]
# [2] = biological target: Lotus japonicus EPR3a ectodomain (EPR3a ED), wild type, EPR3a SEQ ID NO: 62; test: Microscale thermophoresis (MST) binding of polysaccharides to EPR3a ectodomain (ED); conditions: for Kd: FIGS. 11E-11H, preparation of FIG. 11D
# Protocol: Low molecular mass (LMM) exopolysaccharides (EPS) were isolated from various rhizobial strains including Mesorhizobium loti strain R7A ndvB6, R. leguminosarum bv. viciae 3855 (this work) and Sinorhizobium meliloti B578 (Griffins, J. S. et al. Mol. Microbiol. 2008 69: 479-490) that were deficient in cyclic glucan production were grown on minimal media with glucose as the sole source of carbon. The LMM EPS was isolated from the bacterial culture supernatants and purified via sequential precipitation with 6 volumes of 99.8% EtOH (v/v), followed by 9 volumes EtOH (v/v) and purified by size exclusion chromatography (SEC) as previously described (Muszyński, A. et al. J. Biol. Chem. 2016 291: 20946-20961). O-acetyl groups were removed chemically by mild overnight treatment of native EPS samples with 12.5% NH4OH (Muszyński, A. et al. J. Biol. Chem. 2016 291: 20946-20961). Native and de-O-acetylated samples were verified via matrix-assisted laser desorption/ionization time of flight mass spectrometry (MALDI-TOF MS) analysis on Applied Biosystems AB SCIEX TOF/TOF 5800 system in either negative or positive reflector ionization modes. The glycosyl composition and linkage was determined as previously described (Muszyński, A. et al. J. Biol. Chem. 2016 291: 20946-20961).
# Purified EPR3 was fluorescently labeled using the Monolith NT.115TM Protein Labelling Kit Blue NHS (NanoTemper Technologies) according to the manufacturer's instructions. […] To accurately account for this unspecific binding ligand binding to 50 nM free fluorescent label was measured and this small background was subtracted contribution from all the respective MST binding measurements. […] Binding data were processed with the GraphPad Prism 7 software (GraphPad Software, Inc.) and the equilibrium dissociation constants (Kd) values (95% confidence interval) were calculated using the sigmoidal dose-response equations. […]
# L. japonicus EPR3a ED = test: Microscale thermophoresis (MST) binding to EPR3a ED; conditions: for binding of EPR3a ED to polysaccharide (detectable or not): FIGS. 11I-11J
# Protocol: Purified EPR3 was fluorescently labeled using the Monolith NT.115TM Protein Labelling Kit Blue NHS (NanoTemper Technologies) according to the manufacturer's instructions. All experiments were performed in MST buffer (50 mM K2PO4, pH 7.8, 500 mM NaCl, and 0.05% Tween-20) with a constant concentration of EPR3 ED (100 nM and ˜50% labelling efficiency) and dilution series of the various ligands. The samples were incubated for 30 minutes at room temperature before loaded into standard capillaries for measurements on a Monolith NT.115 TM instrument (NanoTemper Technologies) at 25° C., with blue LED power of 50% and MST power of 20%. To accurately measure the experimental errors and ensure data reproducibility, all MST binding experiments were performed with at least three independently purified samples of EPR3. At the highest ligand concentrations, weak ligand binding to the fluorescent label itself was occasionally observed. To accurately account for this unspecific binding ligand binding to 50 nM free fluorescent label was measured and this small background was subtracted contribution from all the respective MST binding measurements. The competition experiments were performed by pre-incubating labeled EPR3 ED with 250 μM R7A EPS or R7A exoU EPS and assessing the binding of EPR3 ED to titrated R7A exoU EPS or R7A EPS, respectively. Binding data were processed with the GraphPad Prism 7 software (GraphPad Software, Inc.) and the equilibrium dissociation constants (Kd) values (95% confidence interval) were calculated using the sigmoidal dose-response equations.
# The EPR3a ED was expressed in insect cells, and the protein was purified as described in Example 1 (FIG. 11D).
# MST experiments were performed as described in Example 2 (FIG. 11C, FIGS. 11E-11J).
# [3] = FIGS. 11E-11H, n=3, EPR3a ED preparation of FIG. 11D (figure legend), read-out: equilibrium dissociation constant (Kd)
# Sequence of Lotus japonicus EPR3 ectodomain (EPR3 ED, residues 33-232), wild type, EPR3 SEQ ID NO: 61 (D3KU53 entry or part of it): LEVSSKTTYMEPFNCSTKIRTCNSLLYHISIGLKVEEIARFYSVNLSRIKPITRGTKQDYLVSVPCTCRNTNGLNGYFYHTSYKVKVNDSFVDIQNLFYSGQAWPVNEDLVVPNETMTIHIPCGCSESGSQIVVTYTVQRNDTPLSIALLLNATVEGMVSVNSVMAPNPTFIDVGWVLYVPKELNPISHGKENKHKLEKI
compound,measurement,setting,value
"CC(=O)N[C@H]1[C@H](O[C@H]2[C@H](O)[C@@H](NC(C)=O)[C@H](O[C@H]3[C@H](O)[C@@H](NC(C)=O)C(O)O[C@@H]3CO)O[C@@H]2CO)O[C@H](CO)[C@@H](O[C@@H]2O[C@H](CO)[C@@H](O[C@@H]3O[C@H](CO)[C@@H](O[C@@H]4O[C@H](CO)[C@@H](O)[C@H](O)[C@H]4NC(C)=O)[C@H](O)[C@H]3NC(C)=O)[C@H](O)[C@H]2NC(C)=O)[C@@H]1O (stereo partly shown) [C06, Chitohexose]",binding,[1],unable to bind
O=C(O)[C@H]1O[C@@H](O[C@H]2[C@H](O)[C@@H](O)[C@@H](O[C@H]3[C@H](O)[C@@H](O)[C@H](OC[C@H]4O[C@@H](OC[C@H]5O[C@@H](O[C@H]6[C@H](O)[C@@H](O)[C@H](O[C@H]7[C@H](O)[C@@H](O)[C@H](O[C@H]8[C@@H](O)[C@@H](CO)OC(O)[C@@H]8O)O[C@@H]7CO)O[C@@H]6CO)[C@H](O)[C@@H](O)[C@@H]5O)[C@H](O)[C@@H](O)[C@@H]4O)O[C@@H]3CO)O[C@@H]2C(=O)O)[C@H](O)[C@@H]1O (stereo partly shown) [R7A deOAc-EPS],Kd,[1],31.3 ± 11.7 µM
same,Kd,"[2]; n=3, figure legend, read-out: equilibrium dissociation constant (Kd)",57.2 ± 15.6 µM
same,Kd,[2]; read-out: equilibrium dissociation constant of Kd,57.2 ± 15.6 µM
CC(=O)N[C@H]1[C@H](O[C@H]2[C@H](O)[C@@H](NC(C)=O)C(O)O[C@@H]2CO)O[C@H](CO)[C@@H](O[C@@H]2O[C@H](CO)[C@@H](O[C@@H]3O[C@H](CO)[C@@H](O)[C@H](O)[C@H]3NC(C)=O)[C@H](O)[C@H]2NC(C)=O)[C@@H]1O (stereo partly shown) [chitotetraose],binding of EPR3a ED to polysaccharide (detectable or not),L. japonicus EPR3a ED; n=3,absence of binding
same,binding of EPR3a ED to polysaccharide (detectable or not),"L. japonicus EPR3a ED; n=3, listed as chitin",did not bind
same,binding,"[2]; FIG. 11I, n=3",did not bind; also recorded: absence of binding
"(2,3/3-OAc)β-D-RibfA-(1→4)-a-D-GlcpA-(1→4)-β-D-Glcp-(1→6)-(3OAc)β-D-Glcp-(1→6)-(2OAc)β-D-Glcp-(1→4)-(2/3OAc)β-D-Glcp-(1→4)-β-D-Glcp-(1→3)-β-D-Galp [R7A EPS] [listing 1 of 2 here]",Kd,"L. japonicus EPR3a ED; FIG. 11C, R^2=0.98, read-out: equilibrium dissociation constant (Kd)",25.6 µM
same,Kd,L. japonicus EPR3a ED; [3],44.4 ± 11.2 µM
"(2,3/3-OAc)β-D-RibfA-(1→4)-a-D-GlcpA-(1→4)-β-D-Glcp-(1→6)-(3OAc)β-D-Glcp-(1→6)-(2OAc)β-D-Glcp-(1→4)-(2/3OAc)β-D-Glcp-(1→4)-β-D-Glcp-(1→3)-β-D-Galp [R7A EPS] [listing 2 of 2 here]",Kd,[1],38.1 ± 7.5 µM
S. meliloti EPS [listing 1 of 2 here],Kd,L. japonicus EPR3a ED; [3],937 ± 389 µM
S. meliloti EPS [listing 2 of 2 here],Kd,[1],222 ± 102 µM
maltodextrin,binding of EPR3a ED to polysaccharide (detectable or not),L. japonicus EPR3a ED; n=3,did not bind; also recorded: absence of binding
